{"source": "patent US20070166774A1", "about": "“Functional immunoassay” (priority 2006, published 2007)", "test_system": "antibody (anti-gadolinium-DTPA)", "experiment": "Immunoassay of gadolinium DTPA, standard curve (HRP-conjugate, microtiter plate)", "assay_type": "binding, rabbit", "method": "White New Zealand rabbits were injected subcutaneously with 1 mg of antigen (1 mg/ml) in multiple sites on the rabbit's back according to the schedule in Table 2. The initial injection was prepared in Freund's complete adjuvant. All other injections were prepared in Freund's incomplete adjuvant. Coating polystyrene microtiter plates. Microtiter strips were coated with 200 ul of 10 ug/ml antibody solution diluted in 0.1 M carbonate buffer pH 9 and incubated overnight at room temperature. The coated plates were blocked with a phosphate buffered saline, pH 7.4 solution containing bovine serum (5 mg/ml) and dextrose 20 mg/ml) for 30 minutes, blotted dry and stored at 4° C. until used. All plates were used within 5 days of preparation. In a typical preparation the coating antibody was a goat anti-rabbit serum. HRP-conjugates. HRP-conjugates prepared as described in Example 11 were diluted between 1 to 100 and 1 to 1000 into phosphate buffered saline, pH 7.4 buffer containing bovine albumin (1 mg/ml). General immunoassay protocols for analytes were performed as follows. 100 μl of standard or serum sample was pipeted into appropriate wells in duplicate followed by 100 μl of antibody. To each well was added 200 μl of HRP-conjugate. After a 60 minute incubation at room temperature the wells were aspirated and washed three times with phosphate buffered saline, pH 7.4 containing (0.1% serum albumin and 0.01% Tween 20. To each well was added 200 ul of substrate solution and incubated for 30 minutes at room temperature. The development of color was stopped by the addition of 50 μl of stop solution. The wells were read using a microtiter plate reader. Standard curve data for gadolinium DTPA is shown in Table 3. Standard values were chosen specifically for this assay as shown in Table 3."}
{"smiles": "O=C([O-])CN(CCN(CC(=O)[O-])CC(=O)[O-])CCN(CC(=O)[O-])CC(=O)[O-].[Gd+3]", "note": "[Gadolinium DTPA, gadolinium DTPA]", "values": [{"measurement": "Optical density, 450 nm", "setting": "Gadolinium DTPA concentration 1 × 10^−2 M", "result": 0.29}, {"measurement": "Optical density, 450 nm", "setting": "Gadolinium DTPA concentration 1 × 10^−3 M", "result": 0.42}, {"measurement": "Optical density, 450 nm", "setting": "Gadolinium DTPA concentration 1 × 10^−4 M", "result": 0.48}, {"measurement": "Optical density, 450 nm", "setting": "Gadolinium DTPA concentration 1 × 10^−5 M", "result": 0.57}, {"measurement": "Optical density, 450 nm", "setting": "Gadolinium DTPA concentration 1 × 10^−6 M", "result": 0.58}, {"measurement": "Optical density, 450 nm", "setting": "Gadolinium DTPA concentration 5 × 10^−5 M", "result": 0.55}, {"measurement": "Optical density, 450 nm", "setting": "Gadolinium DTPA concentration 5 × 10^−6 M", "result": 0.61}]}
